Legend:
human GSK3α = target: T1, human GSK3α (Homo sapiens, UniProt P49840); experiment: In vitro enzymatic activity assay, GSK3α; assay type: biochemical; details: 1.0 mM ATP, 1.0 μM peptide substrate, 120 min, 25° C, read-out: Enzyme GSK3α (IC50)
T1 construct: Full length human GSK3α or GSK3B expressed as N-terminal GST fusion proteins; GST (N); purchased Carna Biosciences (Japan); host or cells: baculovirus host

GSK3A = target: T2, GSK3A (Homo sapiens, UniProt P49840); experiment: NanoBRET cellular target engagement assay, Nanoluc-GSK3A in HEK293 cells; assay type: cell-based; details: NanoBRET GSK3α IC50, HEK293 cells, tracer K-8, 2 hours, 37° C
T2 construct: expressed in transfected cells
T2 sequence (P49840 whole entry): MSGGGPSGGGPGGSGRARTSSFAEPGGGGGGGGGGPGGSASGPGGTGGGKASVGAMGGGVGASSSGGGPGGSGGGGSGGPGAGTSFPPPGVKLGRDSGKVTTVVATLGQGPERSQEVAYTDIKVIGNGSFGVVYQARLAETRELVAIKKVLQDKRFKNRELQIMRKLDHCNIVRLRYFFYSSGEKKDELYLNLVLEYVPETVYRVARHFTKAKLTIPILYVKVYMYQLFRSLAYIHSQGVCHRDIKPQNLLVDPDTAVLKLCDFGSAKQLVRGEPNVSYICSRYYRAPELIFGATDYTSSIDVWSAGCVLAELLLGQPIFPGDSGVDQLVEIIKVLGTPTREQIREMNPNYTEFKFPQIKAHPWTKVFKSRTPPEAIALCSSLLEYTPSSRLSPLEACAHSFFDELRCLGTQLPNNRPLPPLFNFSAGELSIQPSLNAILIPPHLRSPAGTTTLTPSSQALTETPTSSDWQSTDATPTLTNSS

GSK3B [1] = target: T3, GSK3B (Homo sapiens, UniProt P49841); experiment: NanoBRET cellular target engagement assay, Nanoluc-GSK3B in HEK293 cells; assay type: cell-based; set-up: expressed in transfected cells; details: NanoBRET GSK3β IC50, HEK293 cells, tracer K-8, 2 hours, 37° C
T3 sequence (P49841 whole entry, the tested form may be a part): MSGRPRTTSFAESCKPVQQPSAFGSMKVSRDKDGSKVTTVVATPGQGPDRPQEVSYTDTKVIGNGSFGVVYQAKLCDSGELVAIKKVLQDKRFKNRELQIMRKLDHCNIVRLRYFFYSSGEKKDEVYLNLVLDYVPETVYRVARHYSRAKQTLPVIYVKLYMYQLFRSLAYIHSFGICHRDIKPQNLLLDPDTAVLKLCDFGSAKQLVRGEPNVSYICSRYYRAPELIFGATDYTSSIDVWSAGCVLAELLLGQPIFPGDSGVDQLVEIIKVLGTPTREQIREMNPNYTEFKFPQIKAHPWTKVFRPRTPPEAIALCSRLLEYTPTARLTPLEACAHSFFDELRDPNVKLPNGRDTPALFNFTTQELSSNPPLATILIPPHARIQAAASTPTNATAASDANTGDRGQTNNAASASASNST

GSK3B [2] = target: T3, GSK3B; experiment: In vitro enzymatic activity assay, GSK3β; assay type: biochemical; set-up: Full length human GSK3α or GSK3B expressed as N-terminal GST fusion proteins; GST (N); purchased Carna Biosciences (Japan); host or cells: baculovirus host; details: 1.0 mM ATP, 1.0 μM peptide substrate, 120 min, 25° C, read-out: Enzyme GSK3β (IC50)

T1 sequence (P49840 whole entry, the tested form may be a part): as the sequence (P49840 whole entry) above

Row | SMILES | IC50 (human GSK3α) [nM] | IC50 (GSK3A) [nM] | IC50 (GSK3B [1]) [nM] | IC50 (GSK3B [2]) [nM]
1 | COc1cc(Cl)c(-n2cnc(N)c(C(=O)Nc3cncc4c3CCC43CCCN3)c2=O)c(Cl)c1 (stereo not shown) [Example 192, 4-amino-1-(2,6-dichloro-4-methoxyphenyl)-N-(5,6-dihydrospiro[cyclopenta[c]pyridine-7,2′-pyrrolidin]-4-yl)-6-oxo-1,6-dihydropyrimidine-5-carboxamide] | 1.8 | 1.4 | 18.8 | 14.7
2 | CCNCc1cncc(NC(=O)c2c(N)ncn(-c3c(C)cc(CC(F)F)cc3C)c2=O)c1 [Example 156, 4-amino-1-(4-(2,2-difluoroethyl)-2,6-dimethylphenyl)-N-(5-((ethylamino)methyl)pyridin-3-yl)-6-oxo-1,6-dihydropyrimidine-5-carboxamide] | 34.9 | 8.1 | 957 | 1250
3 | Cc1cc(C(F)(F)F)cc(C)c1-n1cnc(N)c(C(=O)Nc2cncc(C3CCCC(C)N3)c2)c1=O (single isomer, unassigned) [Example 90] | 15.6 | 6.5 | 700 | 1070
4 | CCOc1cc(C)c(-n2cnc(N)c(C(=O)Nc3cncc(C4CCC(C)N4)c3)c2=O)c(C)c1 (single isomer, unassigned) [Example 93] | 31.7 | 9.3 | 914 | 1950
5 | COc1cc(Cl)c(-n2cnc(N)c(C(=O)Nc3cncc([C@H]4CCC[C@H](C)N4)c3)c2=O)c(Cl)c1 (single isomer, unassigned) [Example 84] | 3.8 | 2.5 | 179 | 254
6 | COc1c(NC(=O)c2c(N)ncn(-c3c(Cl)cccc3Cl)c2=O)cccc1C1CCCN1 (single isomer, unassigned) [Example 169, (R)-4-amino-1-(2,6-dichlorophenyl)-N-(2-methoxy-3-(pyrrolidin-2-yl)phenyl)-6-oxo-1,6-dihydropyrimidine-5-carboxamide or (S)-4-amino-1-(2,6-dichlorophenyl)-N-(2-methoxy-3-(pyrrolidin-2-yl)phenyl)-6-oxo-1,6-dihydropyrimidine-5-carboxamide] | 4.2 | 2 | 103 | 105
7 | CO[C@H](C)c1cc(C)c(-n2cnc(N)c(C(=O)Nc3cncc([C@@H](C)N)c3)c2=O)c(C)c1 (single isomer, unassigned) [Example 174] | 28 | 8.7 | 560 | 705
8 | CCNCc1cncc(NC(=O)c2c(N)ncn(-c3c(Cl)cc(C(F)F)cc3Cl)c2=O)c1 [Example 14, 4-amino-1-(2,6-dichloro-4-(difluoromethyl)phenyl)-N-(5-((ethylamino)methyl)pyridin-3-yl)-6-oxo-1,6-dihydropyrimidine-5-carboxamide] | 6.4 | 4 | 231 | 318
9 | CCOc1cc(Cl)c(-n2cnc(N)c(C(=O)Nc3cnnc(C(N)=O)c3)c2=O)c(Cl)c1 [Example 28, 5-(4-amino-1-(2,6-dichloro-4-ethoxyphenyl)-6-oxo-1,6-dihydropyrimidine-5-carboxamido)pyridazine-3-carboxamide] | 9.6 | 9 | 699 | 320
10 | CCCOc1cc(C)c(-n2cnc(N)c(C(=O)Nc3cncc(CNC)c3)c2=O)c(C)c1 [Example 127, 4-amino-1-(2,6-dimethyl-4-propoxyphenyl)-N-(5-((methylamino)methyl)pyridin-3-yl)-6-oxo-1,6-dihydropyrimidine-5-carboxamide] | 18.6 | 9.6 | 650 | 767

From patent publication US20260327191A1, “GSK3a INHIBITORS AND METHODS OF USE THEREOF” (Blueprint Medicines Corporation, priority 2023, published 2026)
